In article PMC7993833, “EDP-938, a novel nucleoprotein inhibitor of respiratory syncytial virus, demonstrates potent antiviral activities in vitro and in a non-human primate model” (PLoS Pathogens, 2021):

How the values were obtained:
RSV-A Long [1] = assay: RT-qPCR assay, RSV-A Long in BHK cells; assay type: cell-based; details: human respiratory syncytial virus
RSV-A M37 [2] = assay: RT-qPCR assay, RSV-A M37 in primary HBECs; assay type: cell-based; details: human respiratory syncytial virus, primary HBEC
RSV-A2 = assay: CPE assay, RSV-A2 in Vero cells; assay type: cell-based; details: human respiratory syncytial virus
Experimental: (§1) HEp-2, Vero, and BHK were seeded at 8,000 cells per well (cpw) in growth medium (Dulbecco’s Modified Eagle Medium (DMEM) with 1% GlutaMAX, 1% Penicillin/Streptomycin (P/S), 1% Non-Essential Amino Acids (NEAA), 10% Fetal Bovine Serum (FBS)) or (Minimum Essential Medium (MEM) with 10% FBS, 1% NEAA, 1% P/S) or (Eagle’s Minimum Essential Medium with L-Glutamine, with 10% FBS, 1% P/S) respectively. A549 seeded at 3,000 cpw in F-12K Kaighn’s Modification nutrient mixture with 10% FBS, 1% NEAA, 1% P/S. Cells seeded at time of infection in 96-well plates, final well volume 100μL. Compounds suspended in DMSO, serially diluted and added to wells at 0.5% final DMSO concentration. Viral stocks stabilized with 25% sucrose, previously titered using plaque assay, were added at desired MOI. Sucrose added to cells-only control wells to match percent added with virus. Unless otherwise noted, RSV-A strains were tested at 0.1 MOI and incubated for 5 days in a 37°C, 5% CO2 humidified incubator, and RSV-B at 0.5 MOI for 6 days. Cytopathic effect (CPE) determined using ATPlite (Perkin Elmer) measured with Envision luminometer. For RT-qPCR, RNA was extracted from whole well using Ambion RNAqueous-96 Automated Kit, and RT-qPCR run using Applied Biosystems TaqMan RNA-to-CT 1-Step Kit. […] All EC50s were calculated using the XLFit four-parameter logistic model 200 in Microsoft Excel.

RSV-A Long [3] = assay: CPE assay (ATPlite), RSV-A Long in HEp-2 cells; assay type: cell-based; details: human respiratory syncytial virus, 120 h, HEp-2, RSV-A Long MOI 0.1, 5 days
RSV-A Long [4] = assay: RT-qPCR assay, RSV-A Long in primary cotton rat lung cells; assay type: cell-based; details: human respiratory syncytial virus, 120 h, RSV-A Long MOI 0.1, 5 days
HEK-293 cells = assay: Cytotoxicity (ATPlite) in HEK-293 cells; assay type: cell-based, human; details: at up to 50 μM, 3 days
Experimental: HEp-2, A549, and CHO cells were seeded at 3,000 cpw in their respective growth medium. CHO growth medium used was RPMI medium 1640 with 10% FBS, 1% P/S, 1% GlutaMAX. HEK-293 cells seeded at 10,000 cpw in DMEM growth medium. Undifferentiated HBECs were seeded in collagen-coated 96-well plates at 7,500 cpw in appropriate growth medium. Compound added and incubated for 3 days (4 days for HBECs) as described above. Plates read with ATPlite and CC50 calculated as EC50s as described above. SI = CC50/EC50 within a cell line.

RSV-A M37 [5] = assay: CPE assay, RSV-A M37 in HEp-2 cells; assay type: cell-based; details: human respiratory syncytial virus
Experimental: as §1

RSV-B clinical isolates = assay: RSV Virospot reduction assay (ViroClinics), RSV-B isolates from the Netherlands; assay type: cell-based; details: human respiratory syncytial virus, 10 RSV-B strains from the Netherlands
Experimental: To further expand testing against clinical isolates, the compound was assayed against a panel of 10 RSV-A and 10 RSV-B strains mainly isolated from children of age 2–200 weeks in the Netherlands.
RSV clinical isolates were obtained from Baylor University and Medical College of Wisconsin. MOI of 0.1 used for all clinical isolates except RSV-A 629-9-2 (0.01) and RSV-B 629-24/2007 (0.0044) due to low titer. Virospot reduction assay was run by ViroClinics (Rotterdam, the Netherlands) against 20 additional RSV clinical isolates.

[6] = test system: recombinant RSV A2-line19F, N protein mutants; assay: microbe, parasite or virus in culture; details: human respiratory syncytial virus
[7] = Plasma drug exposure in African Green monkey study; assay type: in vivo, African Green monkeys (Chlorocebus); details: both sexes, plasma, 100 mg/kg BID oral, read-out: mean plasma Ctrough
Text: The African green monkey model was selected for EDP-938 in vivo studies for its higher level of viral replication versus cotton rats and BALB/c mice. […] In this previous trial, patients who achieved RSV-604 levels in excess of the EC90 experienced a 2.31 log reduction in viral load. […] The lack of antiviral activity observed with RSV-604 could be a function of relatively poor potency compared to EDP-938 (Fig 1) and/or insufficient tissue exposure. While in this study the animals were not sacrificed and thus the drug level in the lung could not be determined, plasma samples were taken at 12h after the last dose (Ctrough) to confirm drug exposure. […] It is reasonable to project that given the same dose or exposure EDP-938 should perform better than RSV-604 in RSV infected patients as well.
A study of EDP-938 and RSV-604 in the African Green monkey (AGM) animal model was performed by BIOQUAL, Inc (Rockville, Maryland). Methods were similar to those run in a study by Ispas et al.. Six (6) male and 6 female AGMs (Chlorocebus) of 4–5 kg were purchased from PrimGen (Hines, Illinois). Each animal was challenged with 2 x 10^5 PFU of RSV A2 viral inoculum (Virapur, San Diego, CA). Four animals (2 per sex) in each group were treated with EDP-938, RSV-604, or vehicle control (0.5% w/v methylcellulose). […]

Compound `O=C1Nc2ccccc2C(c2ccccc2)=N[C@@H]1Nc1nnc(-c2ncc(C(F)(F)F)cc2N2CCOCC2)o1` [EDP-938] has an EC50 (RSV-A Long [1]) of 16800 nM, an EC50 (RSV-A M37 [2]; 144 h, RSV-A M37 MOI 0.1, 6 days) of 23 ± 14 nM and an EC90 (RSV-A M37 [2]; RSV-A M37) of 36 ± 17 nM. For the same compound, the EC50 (RSV-A2) was 33 ± 7 nM, the EC90 (RSV-A2) was 44 ± 18 nM and the EC90 (RSV-A Long [3]; CPE) was 60 ± 18 nM. The EC50 (RSV-A Long [3]; CPE (ATPlite), read-out: EC50) was 52 ± 12 nM, the EC50 (RSV-A Long [4]) was 10300 nM and the cytotoxicity (HEK-293 cells) was “no significant cytotoxicity”. For the same compound, the EC50 (RSV-A M37 [5]) was 28 ± 4 nM, the EC90 (RSV-A M37 [5]) was 34 ± 10 nM and the EC50 (RSV-B clinical isolates) was 51 nM. The EC50 ([6]; HEp-2, recombinant RSV N K107N) was 52 ± 6 nM, the EC50 ([6]; HEp-2, recombinant RSV N K136R) was 125 ± 20 nM and the EC50 ([6]; HEp-2, recombinant RSV N L139I) was 326 ± 83 nM. For the same compound, the EC50 ([6]; HEp-2, recombinant RSV N M109I) was 70 ± 26 nM, the EC50 ([6]; HEp-2, recombinant RSV N M109K) was 1220 nM and the EC50 ([6]; HEp-2, recombinant RSV N M109K mutant) was about 1200 nM. It also gave an EC50 ([6]; HEp-2, recombinant RSV N M109T) of 244 ± 61 nM, an EC50 ([6]; HEp-2, recombinant RSV N N105D) of 60 ± 44 nM and an EC50 ([6]; HEp-2, recombinant RSV N S134T) of 99 ± 26 nM. It also gave an EC50 ([6]; HEp-2, recombinant RSV N V90A) of 46 ± 29 nM, an EC50 ([6]; HEp-2, recombinant RSV Wild-type (WT), HEp2) of 45 ± 21 nM and a concentration at 12 h after the last dose [7] of 1480 nM.
